By Ki is commonly meant the equilibrium dissociation constant of an inhibitor or competing ligand from its target. A lower Ki goes with a stronger hold on the target. As a reminder, the Kd is a measure of binding affinity in units of concentration. In general, logD refers to lipophilicity at a set pH, counting ionised and neutral species. High values mean a more lipophilic compound, low ones a more hydrophilic compound. For orientation: IC50 means the concentration at which inhibition is half-maximal. Low values mean inhibition by little substance, high ones a need for much substance. For orientation: tissue uptake means the share of the injected amount in each gram of the tissue.

The record followed here is ChEMBL document CHEMBL5523697, “Colony Stimulating Factor-1 Receptor: An emerging target for neuroinflammation PET imaging and AD therapy” (Bioorg Med Chem, 2024).

The target of data set [1] is T1, Macrophage colony-stimulating factor 1 receptor (Homo sapiens, UniProt P07333).
T1 sequence (P07333 whole entry): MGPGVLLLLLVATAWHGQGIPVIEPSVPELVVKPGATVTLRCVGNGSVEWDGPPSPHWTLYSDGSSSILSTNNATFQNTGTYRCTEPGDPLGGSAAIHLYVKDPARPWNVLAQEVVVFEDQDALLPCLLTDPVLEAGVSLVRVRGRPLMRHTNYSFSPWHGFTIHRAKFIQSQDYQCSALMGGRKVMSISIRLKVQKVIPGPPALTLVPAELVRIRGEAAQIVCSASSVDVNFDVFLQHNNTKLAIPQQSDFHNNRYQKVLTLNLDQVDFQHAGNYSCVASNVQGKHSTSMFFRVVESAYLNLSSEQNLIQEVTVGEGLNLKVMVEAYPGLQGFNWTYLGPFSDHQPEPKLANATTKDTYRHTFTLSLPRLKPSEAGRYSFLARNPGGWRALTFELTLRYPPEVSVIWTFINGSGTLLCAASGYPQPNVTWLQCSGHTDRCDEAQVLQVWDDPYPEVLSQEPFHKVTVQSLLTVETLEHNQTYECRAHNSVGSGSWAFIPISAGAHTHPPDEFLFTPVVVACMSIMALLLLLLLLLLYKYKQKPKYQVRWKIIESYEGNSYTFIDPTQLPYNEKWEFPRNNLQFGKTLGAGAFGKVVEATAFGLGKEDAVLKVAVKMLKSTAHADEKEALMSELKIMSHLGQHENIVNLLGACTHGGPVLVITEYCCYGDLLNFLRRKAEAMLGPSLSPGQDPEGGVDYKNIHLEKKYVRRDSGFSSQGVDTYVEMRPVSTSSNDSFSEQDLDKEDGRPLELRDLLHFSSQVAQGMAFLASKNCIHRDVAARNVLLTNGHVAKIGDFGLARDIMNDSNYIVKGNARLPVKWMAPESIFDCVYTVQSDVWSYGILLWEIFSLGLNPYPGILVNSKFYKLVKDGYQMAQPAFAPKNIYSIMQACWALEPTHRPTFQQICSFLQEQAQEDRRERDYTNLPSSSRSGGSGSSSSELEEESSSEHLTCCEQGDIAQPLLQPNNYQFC
For data set [2], the target named is T1, Macrophage colony-stimulating factor 1 receptor. The source holds these as a separate data set.
Data set [3] is described as follows: physchem. The settings on record: buffer, pH 7.4.
In data set [4] the target is T1, Macrophage colony-stimulating factor 1 receptor. The source holds these as a separate data set.
The nature of data set [5]: in vivo. The settings on record: mouse, brain.
Data set [6] in a line: in vivo. The settings on record: mouse, brain, iv, 5 mg/kg.
Data set [7] in a line: in vivo. Conditions: mouse, brain, iv, 5 mg/kg. This is another data set of the same source.
The nature of data set [8]: in vivo. Conditions: mouse, brain, iv, 5 mg/kg. The source holds these as a separate data set.
Data set [9] can be described thus: physchem. Conditions: octanol/water.

For `CCOc1cc2ncc(C(N)=O)c(Nc3ccc(F)cc3F)c2cc1N1CCN(C)CC1`, in data set [1], the affinity corresponds to a Ki of 8 nM.
Molecule `CNC(=O)c1cc(Oc2ccc3nc(N(C)[C@@H]4CCCC[C@H]4O)sc3c2)ccn1` registered a Kd in [2] of 15.7 nM. For the same molecule, in “physchem [3]”, the pH-dependent lipophilicity (logD) is 3.67.
In data set [4], `CCOc1cc2ncc(C(N)=O)c(Nc3ccc(F)cc3F)c2cc1N1CCN([11CH3])CC1` yielded a half-inhibitory concentration (IC50) of 6 nM.
Turning to `[11CH3]NC(=O)c1cc(Oc2ccc3nc(N[C@@H]4CCCC[C@H]4O)sc3c2)ccn1`, the tissue uptake at 1 h in the data set “in vivo [5]” stood at 1.18 %ID/g; in the data set “in vivo [8]”, 1.3 %ID/g. In the data set “in vivo [6]”, this molecule displayed a tissue uptake at 0.25 h of 1.35 %ID/g. This molecule also registered a tissue uptake at 5 min in the data set “in vivo [7]” of 2 %ID/g. Also, the logD in the data set “physchem [9]” came out at 2.26.
`CNC(=O)c1cc(Oc2ccc3nc(N([11CH3])[C@@H]4CCCC[C@H]4O)sc3c2)ccn1`: in [2], the Kd was found to be 26 nM. In the data set “physchem [3]”, the log distribution coefficient (logD) is 3.38.
